According to paper PMC9090415, “Discovery of small molecule inhibitors of Plasmodium falciparum apicoplast DNA polymerase” (Journal of Enzyme Inhibition and Medicinal Chemistry, 2022):

Molecular target: P. falciparum apicoplast DNA polymerase (Pf-apPOL) (Plasmodium falciparum, UniProt Q8ILY1)
Test: Fluorescence-based high-throughput DNA polymerase assay (molecular beacon), primary screen and dose-response
Format: biochemical
Conditions: for IC50: supplemental file 2, sheet IC50 nontoxic compounds, Pf-apPOL; for DNA Pol: 90 min, 10 µM
Summary of the method: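 Single-point screening used 10 µM compound with 20 nM polymerase, 20 nM hairpin substrate and 6 µM dNTPs for 90 min at 25 °C. Confirmatory titrations (2.5–80 µM) followed fluorescence at three times, and IC50 was derived from a fit including a cooperativity term n.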

Chain of P. falciparum apicoplast DNA polymerase (Pf-apPOL) (Q8ILY1 entry or part of it): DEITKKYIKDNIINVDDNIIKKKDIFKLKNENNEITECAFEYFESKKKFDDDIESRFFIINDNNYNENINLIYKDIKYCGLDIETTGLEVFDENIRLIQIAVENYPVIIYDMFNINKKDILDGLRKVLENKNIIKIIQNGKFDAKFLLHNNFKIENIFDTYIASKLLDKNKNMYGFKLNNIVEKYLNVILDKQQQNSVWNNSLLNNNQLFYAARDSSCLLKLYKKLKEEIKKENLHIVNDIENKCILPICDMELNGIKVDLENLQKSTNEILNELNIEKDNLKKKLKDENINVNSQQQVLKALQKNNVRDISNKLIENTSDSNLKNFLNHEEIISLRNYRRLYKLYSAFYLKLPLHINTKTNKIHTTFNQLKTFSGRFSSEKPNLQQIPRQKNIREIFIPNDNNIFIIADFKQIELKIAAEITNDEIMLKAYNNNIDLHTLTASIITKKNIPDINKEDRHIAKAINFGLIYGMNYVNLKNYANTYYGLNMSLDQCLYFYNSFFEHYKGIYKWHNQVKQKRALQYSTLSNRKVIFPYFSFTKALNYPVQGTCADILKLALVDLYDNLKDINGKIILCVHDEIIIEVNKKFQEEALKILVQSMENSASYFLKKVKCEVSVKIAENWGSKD

SMILES: Cc1ccccc1C(=O)N1CCc2c(nc3cc(-c4ccccc4)[nH]n3c2=O)C1 [Molecule 41]
- IC50: 12.4 µM

SMILES: O=C(Cn1ccc2c(=O)[nH]ccc21)Nc1cc(F)ccc1F [Molecule 42]
- IC50: 12.7 µM

SMILES: COc1ccc(C2CC(c3ccc(Cl)cc3Cl)Nc3nc(N)nn32)cc1OC (stereo not drawn) [Molecule 43]
- IC50: 11.7 µM

SMILES: COCC(=O)Nc1c(-c2cccc(F)c2)nc2cc(C)ccn12 [Molecule 44, COCC(=O)Nc1c(nc2n1ccc(c2)C)c1cccc(c1)F]
- % inhibition Apo pol 10' (DRC-1, concentration 2.5): 6.785%
- % inhibition Apo pol 10' (DRC-1, concentration 5): 30.033%
- % inhibition Apo pol 10' (DRC-1, concentration 10): 50.0286%
- % inhibition Apo pol 10' (DRC-1, concentration 20): 55.8788%
- % inhibition Apo pol 10' (DRC-1, concentration 40): 80.2368%
- % inhibition Apo pol 10' (DRC-1, concentration 80): 83.5036%
- % inhibition Apol 90' (DRC-1, concentration 2.5): 1.502%
- % inhibition Apol 90' (DRC-1, concentration 5): 18.1602%
- % inhibition Apol 90' (DRC-1, concentration 10): 35.5455%
- % inhibition Apol 90' (DRC-1, concentration 20): 42.2252%
- % inhibition Apol 90' (DRC-1, concentration 40): 74.869%
- % inhibition Apol 90' (DRC-1, concentration 80): 86.4562%
- % inhibition apPOL 180' (DRC-1, concentration 2.5): -2.445%
- % inhibition apPOL 180' (DRC-1, concentration 5): 8.4449%
- % inhibition apPOL 180' (DRC-1, concentration 10): 23.452%
- % inhibition apPOL 180' (DRC-1, concentration 20): 30.1351%
- % inhibition apPOL 180' (DRC-1, concentration 40): 67.7953%
- % inhibition apPOL 180' (DRC-1, concentration 80): 86.4237%
- % inhibition Apo pol 5' (DRC-2, concentration 2.5): 10%
- % inhibition Apo pol 5' (DRC-2, concentration 5): 29%
- % inhibition Apo pol 5' (DRC-2, concentration 10): 41%
- % inhibition Apo pol 5' (DRC-2, concentration 20): 50%
- % inhibition Apo pol 5' (DRC-2, concentration 40): 52%
- % inhibition Apo pol 5' (DRC-2, concentration 80): 45%
- % inhibition Apol 40' (DRC-2, concentration 2.5): 9%
- % inhibition Apol 40' (DRC-2, concentration 5): 27%
- % inhibition Apol 40' (DRC-2, concentration 10): 40%
- % inhibition Apol 40' (DRC-2, concentration 20): 59%
- % inhibition Apol 40' (DRC-2, concentration 40): 69%
- % inhibition Apol 40' (DRC-2, concentration 80): 69%
- % inhibition ApPOL 90' (DRC-2, concentration 2.5): 8%
- % inhibition ApPOL 90' (DRC-2, concentration 5): 24%
- % inhibition ApPOL 90' (DRC-2, concentration 10): 38%
- % inhibition ApPOL 90' (DRC-2, concentration 20): 58%
- % inhibition ApPOL 90' (DRC-2, concentration 40): 73%
- % inhibition ApPOL 90' (DRC-2, concentration 80): 74%
- % inhibition apPOL 180' (DRC-2, concentration 2.5): 3.16%
- % inhibition apPOL 180' (DRC-2, concentration 5): 15%
- % inhibition apPOL 180' (DRC-2, concentration 10): 27%
- % inhibition apPOL 180' (DRC-2, concentration 20): 51%
- % inhibition apPOL 180' (DRC-2, concentration 40): 73%
- % inhibition apPOL 180' (DRC-2, concentration 80): 77%
- % inhibition Apol 40' (conc. 5, DRC-2): 27%
- % inhibition apPOL 180' (conc. 10, DRC-2): 27%
- % inhibition Apol 40' (conc. 40, DRC-2): 69%
- % inhibition ApPOL 90' (conc. 40, DRC-2): 73%
- % inhibition apPOL 180' (conc. 40, DRC-2): 73%
- % inhibition Apol 40' (conc. 80, DRC-2): 69%
- DNA Pol (primary screen value by plate and well): 43
- DNA Pol (primary screen value of the 186 hits, unit not given): 43

SMILES: COCC(=O)Nc1c(-c2cccc(F)c2)nc2cc(C)ccn12 [Molecule 44]
- IC50: 11.1 µM
